Here are results for 2 compounds from patent US5965578A, “Inhibitors of farnesyl-protein transferase” (Merck & Co., Inc., priority 1997, dated 1999).

Each structure is given as a SMILES string. Structures can show the parent of a compound that is named as a salt. Where two headings read alike, the source gives them in different places.

The target in this assay is T1, human FPTase (Homo sapiens, UniProt P49354+P49356).
T1 construct: made in house
Kind of assay: In vitro inhibition of ras farnesyl transferase (human FPTase assay). Type of assay: biochemical. On the procedure:
Assays of farnesyl-protein transferase. […] Reactions were initiated with FPTase and stopped with 1 ml of 1.0 M HCL in ethanol. […] Purified compounds were dissolved in 100% dimethyl sulfoxide (DMSO) and were diluted 20-fold into the assay. Percentage inhibition is measured by the amount of incorporation of radioactivity in the presence of the test compound when compared to the amount of incorporation in the absence of the test compound.
Human FPTase activity was assayed as described above with the exception that 0.1% (w/v) polyethylene glycol 20,000, 10 μM ZnCl2 and 100 nM Ras-CVIM were added to the reaction mixture. Reactions were performed for 30 min., stopped with 100 μl of 30% (v/v) trichloroacetic acid (TCA) in ethanol and processed as described above for the bovine enzyme.

By IC50 is commonly meant the concentration that gives 50% inhibition.

Take `N#Cc1ccc(Cc2cncn2CC2CCN(c3ccccc3)C(=O)C2)cc1` (centres unmarked) [Example 1, 4-[5-(4-Cyanobenzyl)imidazol-1-ylmethyl]-1-phenyl-2-piperidinone hydrochloride]: the 50% inhibitory concentration (IC50) was at most 10 µM.
Take `CCOC(=O)C1(Cc2cccc(C)c2)CCN(Cc2cncn2Cc2ccc(C#N)cc2)CC1=O` (centres unmarked) [Example 6, Ethyl 1-[3-(4-cyanobenzyl)-3H-imidazol-4-ylmethyl]-3-oxo-4-(3-methylbenzyl)piperidine-4-carboxylate trifluoroacetate salt]: the IC50 (human FPTase, 100 nM Ras-CVIM, [3H]-FPP, 30 min, read-out: IC50 of inhibitory activity against human FPTase) was at most 10 µM.
